What all share (conditions): final concentration in well; CAMHB, 37° C., 24 hours; single compound
In test [1] the test system is Pseudomonas aeruginosa ATCC 27853.
Description: (§1) Similarly, starting with a 1% methylene blue solution, a 2-fold serial dilution series was generated consisting of 24 members having a methylene blue concentration ranging from 1% to 1.1920929×10^−7%. Each dilution series was prepared using Cation-Adjusted Muller Hinton broth (CAMHB).
(§2) For each dilution series, 0.1 ml of each dilution, in order from most concentrated to least concentrated, was placed into a separate well of a 96-well tissue-culture plate. Select bacterial species were diluted in CAMHB so that 0.1 ml contained approximately 1×10^6 bacteria per ml. […] The tissue-culture plates were incubated at 37° C. for 24 hours.
(§3) After 24 hours, each well was visually assessed using a light microscope for bacterial growth.
(§4) 0.1 ml of each dilution, in order from most concentrated to least concentrated, was placed into an individual well of a 96-well tissue-culture plate. Select bacterial species were diluted in CAMHB so that 0.1 ml contained approximately 1×10^6 bacteria per ml. […] The tissue-culture plates were incubated at 37° C. for 24 hours.
(§5) After 24 hours, each well was visually assessed using a light microscope for bacterial growth. The dilution with the lowest concentrations capable of inhibiting bacterial growth was defined as the MIC.
Test [2] relates to Klebsiella pneumoniae ATCC 13883.
Description: Each dilution series was prepared using Cation-Adjusted Muller Hinton broth (CAMHB).
as §2, §3
Test [3] concerns Staphylococcus aureus ATCC BAA-44.
Description: as §1, §2, §3, §4, §5

For the compound `O=P(O)(O)O` [Phosphoric Acid, phosphoric acid], the MIC in test [1], in test [2] and in test [3] was 0.332% throughout.
Turning to `CN(C)c1ccc2nc3ccc(=[N+](C)C)cc-3sc2c1` [Methylene Blue, 3,7-bis(dimethylamine)-phenothiazin-5-ium chloride], the values for the MIC in test [1], in test [2] and in test [3] were 0.5%, 0.25% and 0.003906%, respectively.

The values are drawn from patent publication US20220168317A1, “Therapeutic Thiazine Dye Compositions and Methods of Use” (AB BioInnovations, Inc., priority 2020, published 2022).
